Laboratory results reported in publication PMC11855827, “High-Throughput Screening of Five Compound Libraries for Anthelmintic Activity and Toxicity Leads to the Discovery of Two Flavonoid Compounds” (International Journal of Molecular Sciences, 2025).
“And” between values parts separate entries of the source, which are not always exact repeats. Identical values can stand only once. Counter-ions that a name gives are not always drawn. Like-named read-outs stand apart in the source and are kept apart here.

Tested on: C. elegans
[1] = Table S2, C. elegans SS assay, 110 μM, 0 h, averages of 4 data points
[2] = Table S2, C. elegans SS assay, 110 μM, 24 h, averages of 4 data points

Row | Compound | Percentage of motility inhibition 0 h [1] | Percentage of motility inhibition 24 h [2] | Percentage of motility inhibition 0 h (110 µM) [%] | Percentage of motility inhibition 24 h (110 µM) [%]
1 | C=C(CCC=C(C)C)[C@H]1CC[C@]2(C)[C@@H]1[C@H](O)C[C@@H]1[C@@]3(C)CC[C@H](O[C@@H]4O[C@H](CO)[C@@H](O)[C@H](O)[C@H]4O[C@@H]4O[C@H](CO)[C@@H](O)[C@H](O)[C@H]4O)C(C)(C)[C@@H]3CC[C@]12C [Ginsenoside Rk1] | 4% | 0% |  | 
2 | CC12CCC(CC1=O)C2(C)C (stereo not drawn) [(+)-Camphor] | 2% and 0% | 5% and 0% |  | 
3 | CC(C)OC(=O)[C@H](C)N[P@](=O)(CO[C@H](C)Cn1cnc2c(N)ncnc21)Oc1ccccc1.CC(C)OC(=O)[C@H](C)N[P@](=O)(CO[C@H](C)Cn1cnc2c(N)ncnc21)Oc1ccccc1.O=C(O)/C=C/C(=O)O [GS‐7340 (hemifumarate)] | 21% | 0% |  | 
4 | Liensinine (perchlorate) | 7% | 0% |  | 
5 | CCCCCc1cc(=O)c2ccccc2n1C [1‐Methyl‐2‐pentyl‐4(1H)‐quinolinone] | 44% | 30% |  | 
6 | Theaflavin 3,3'‐digallate | 0% | 2% |  | 
7 | COc1ccc([C@@H]2CC(=O)c3c(O)cc(O[C@@H]4O[C@H](CO)[C@@H](O)[C@H](O)[C@H]4O[C@@H]4O[C@@H](C)[C@H](O)[C@@H](O)[C@H]4O)cc3O2)cc1O [Neohesperidin] | 14% | 0% |  | 
8 | CC1(C)CCC[C@]2(C)[C@H]3CCO[C@]3(C)CC[C@@H]12 [Ambroxide] | 8% | 14% |  | 
9 | C[C@@]1(C(=O)O)CC[C@]2(C)CC[C@]3(C)C4=CC(=O)c5c(cc(O)c(O)c5C=O)[C@]4(C)CC[C@@]3(C)[C@@H]2C1 [Demethylzeylasteral] | 0% | 36% |  | 
10 | O[C@H]1[C@H]2c3cc4c(cc3CN3CC[C@H](C[C@@H]1O)[C@H]23)OCO4 [Dihydrolycorine] | 0% | 0% |  | 
11 | CC1(C)CC[C@]2(C(=O)O)CCC3=C(CC[C@@H]4[C@@]5(C)C[C@H](O)[C@H](O)[C@@](C)(C(=O)O)[C@@H]5CC[C@@]34C)[C@@H]2C1 [Polygalic acid] | 0% | 1% |  | 
12 | C=C1C2CC3(C1O)C1CC4C5(C)CCC(O)C4(C1N(CC)C5)C3CC2O (centres unmarked) [12‐Epinapelline] | 0% | 9% |  | 
13 | CC1(C)CC[C@]2(C(=O)O)CC[C@]3(C)C(=CC[C@@H]4[C@@]5(C)CC[C@H](O[C@@H]6O[C@H](C(=O)O)[C@@H](O)[C@H](O[C@@H]7OC[C@@H](O)[C@H](O)[C@H]7O[C@@H]7O[C@H](CO)[C@@H](O)[C@H](O)[C@H]7O)[C@H]6O)C(C)(C)[C@@H]5CC[C@]43C)[C@@H]2C1 | 0% | 0% |  | 
14 | C=CC1=C(C)/C(=C/C2=NC(=C\c3[nH]c(/C=C4\NC(=O)C(C)=C4C=C)c(C)c3CCC(=O)O)/C(CCC(=O)O)=C2C)NC1=O [Biliverdin (hydrochloride)] | 0% | 1% |  | 
15 | C[C@@H]1C[C@H]2O[C@@]3(O[C@@H]2C(C)(C)O)[C@H](O)[C@@]2(C)[C@@H]4CC[C@H]5C(C)(C)[C@@H](O[C@@H]6OC[C@@H](O)[C@H](O)[C@H]6O)CC[C@@]56C[C@@]46CC[C@]2(C)[C@@H]13 [Cimigenoside] | 30% | 17% |  | 
16 | CC(C)(O)[C@H]1CC[C@@](C)([C@H]2[C@@H](O)C[C@@]3(C)[C@@H]4C[C@H](O)[C@H]5C(C)(C)[C@@H](O)CC[C@@]56C[C@@]46CC[C@]23C)O1 [Cyclogalegenin] | 22% | 9% |  | 
17 | CC1=CC(=O)[C@@H](O)[C@]2(C)[C@H]3[C@@H](O)[C@H](O)[C@@]4(C)OC[C@@]35[C@@H](C[C@@H]12)OC(=O)[C@H](O)[C@]54O [Bruceine D] | 25% | 54% |  | 
18 | CC(C)(C)NC(=O)[C@@H]1CN(Cc2cccnc2)CCN1C[C@@H](O)C[C@@H](Cc1ccccc1)C(=O)N[C@H]1c2ccccc2C[C@H]1O.O=S(=O)(O)O [Indinavir (sulfate)] | 8% | 10% |  | 
19 | Cc1ccc(NC(=O)C(=O)NC2CC(C)(C)NC(C)(C)C2)cc1 [YYA‐021] | 44% | 39% |  | 
20 | CCn1cc(C(=O)O)c(=O)c2cc(F)c(N3CCNC(C)C3)c(F)c21.Cl (centres unmarked) [Lomefloxacin (hydrochloride)] | 39% | 0% |  | 
21 | CCOC(=O)NCCCC(=O)NCCc1ccccc1 [Santacruzamate A] | 0% | 0% |  | 
22 | C[C@@]1(O)[C@H](O)[C@@H](CO)O[C@H]1n1ccc(N)nc1=O [NM107] | 37% | 27% |  | 

Row | Compound | Percentage of motility inhibition 0 h [1] | Percentage of motility inhibition 24 h [2] | Percentage of motility inhibition 0 h (110 µM) [%] | Percentage of motility inhibition 24 h (110 µM) [%]
23 | Larixyl acetate | 0% | 44% |  | 
24 | COc1ccc(CC2c3cc(OC)c(OC)cc3CCN2C)cc1OC (stereo not drawn) [DL‐Laudanosine] | 7% | 12% |  | 
25 | C=C1C(=O)O[C@H]2C[C@@H](C)[C@@H]3[C@@H](OC(C)=O)C[C@H](O)[C@@]3(C)[C@@H](OC(C)=O)[C@H]12 [Britannin] | 14% | 5% |  | 
26 | CCCCCCCC/C=C\CCCCCCCC(=O)[O-].[Na+] [Sodium oleate] | 0% | 0% |  | 
27 | C[C@H](CC[C@@H](O[C@@H]1O[C@H](CO)[C@@H](O)[C@H](O)[C@H]1O[C@@H]1O[C@H](CO)[C@@H](O)[C@H](O)[C@H]1O)C(C)(C)O)[C@H]1CC[C@@]2(C)[C@H]3CC=C4[C@@H](CC[C@H](O[C@@H]5O[C@H](CO[C@@H]6O[C@H](CO)[C@@H](O)[C@H](O)[C@H]6O)[C@@H](O)[C@H](O)[C@H]5O)C4(C)C)[C@]3(C)[C@H](O)C[C@]12C [Mogroside IV-E] | 4% | 6% |  | 
28 | Cc1c(O)c(C)c2occ(Cc3ccc4c(c3)OCO4)c(=O)c2c1O [Methylophiopogonone A] | 0% | 0% |  | 
29 | Cc1nnc(SCC2=C(C(=O)[O-])N3C(=O)[C@@H](NC(=O)Cn4cnnn4)[C@H]3SC2)s1.[Na+] [Cefazolin (sodium)] | 14% | 0% |  | 
30 | COc1cc(OC)c2c(=O)cc(-c3ccccc3)oc2c1 [5,7‐Dimethoxyflavone] | 37% | 15% |  | 
31 | C[C@]1(O[C@H]2O[C@H](CO)[C@H](O)[C@H](O)[C@H]2O)C[C@@H](O)[C@@H]2C=CO[C@@H](O[C@@H]3O[C@H](CO)[C@@H](O)[C@H](O)[C@H]3O)[C@@H]21 [Rehmannioside C] | 0% | 8% |  | 
32 | Bacopaside II | 7% | 9% |  | 
33 | C[C@@H]1NC(=O)N[C@@H]1CCCCCC(=O)O [D‐Desthiobiotin] | 18% | 4% |  | 
34 | CC(=O)O[C@H]1CC[C@]2(C)C3=C(CC[C@H]2C1(C)C)[C@]1(C)C[C@@H](O)[C@H]([C@@H](CCC=C(C)C)C(=O)O)[C@@]1(C)CC3 [3-O-Acetyl-16α-hydroxytrametenolic acid] | 7% | 10% |  | 
35 | COc1cc(-c2oc3cc(OC)c(OC)c(O)c3c(=O)c2OC)ccc1O [Chrysosplenetin] | 17% | 6% |  | 
36 | C[C@@H]1O[C@@H](O[C@@H]2[C@H](O)[C@@H](O)[C@H](O[C@H]3CC[C@@]4(C)C(CC[C@]5(C)C4C=C[C@]46OC[C@@]7(CCC(C)(C)CC74)[C@@H](O)C[C@]65C)C3(C)C)O[C@@H]2CO[C@@H]2O[C@H](CO)[C@@H](O)[C@H](O)[C@H]2O)[C@H](O)[C@H](O)[C@H]1O (some centres unmarked) [Saikosaponin C] | 24% | 0% |  | 
37 | OCC1=C[C@@H](O)[C@]2(O[C@@H]3O[C@H](CO)[C@@H](O)[C@H](O)[C@H]3O[C@@H]3O[C@H](CO)[C@@H](O)[C@H](O)[C@H]3O)C=CO[C@@H](O[C@@H]3O[C@H](CO)[C@@H](O)[C@H](O)[C@H]3O)[C@H]12 [Rehmannioside D] | 11% | 35% |  | 
38 | C/C=C/C=C/C=C\CC/C=C/C(=O)NCC(C)(C)O [Hydroxy‐α‐sanshool] | 3% | 0% |  | 
39 | CC(C)=CCc1c(O)cc2c(c1O)C(=O)C[C@@H](c1ccc(O)cc1)O2 [(2S)‐6‐Prenylnaringenin] | 0% | 0% |  | 
40 | Capsaicin β‐D‐glucopyrano side |  |  | 3 | 0
41 | CC(C)=CCC[C@](C)(O[C@@H]1O[C@H](CO[C@@H]2OC[C@H](O[C@@H]3OC[C@@H](O)[C@H](O)[C@H]3O)[C@H](O)[C@H]2O)[C@@H](O)[C@H](O)[C@H]1O)[C@H]1CC[C@]2(C)[C@@H]1[C@H](O)C[C@@H]1[C@@]3(C)CC[C@H](O[C@@H]4O[C@H](CO)[C@@H](O)[C@H](O)[C@H]4O[C@@H]4O[C@H](CO)[C@@H](O)[C@H](O)[C@H]4O)C(C)(C)[C@@H]3CC[C@]12C [Ginsenoside Ra1] | 0% | 0% |  | 
42 | CCC[C@@H]1C[C@@H](C(=O)N[C@@H]([C@H]2O[C@H](SC)[C@H](O)[C@@H](O)[C@H]2O)[C@H](C)Cl)N(C)C1.Cl [Clindamycin (hydrochloride)] | 28% | 3% |  | 
43 | CCN(CC)c1nc2c(S(=O)(=O)c3ccc(Cl)cc3)nnn2c2cc(OC)c(OC)cc12 [Targocil] | 21% | 11% |  | 
